Results on one compound are retold here after patent US20240139280A1, “USE OF HIF-1-ALPHA INHIBITORS IN CANCER IMMUNOTHERAPY” (ONCOC4, INC., priority 2021, published 2024).

The test has as its system E0771 tumor microenvironment. The experiment in a line: Flow cytometry of dissociated E0771 tumors (tumor cells, myeloid cells, TILs). The test is classed as in vivo, C57BL/6 mice. As to the method: FIGS. 6A-D. E0771 cells (0.5×10^6) were orthotopically transplanted into C57BL/6 mice (day 0). The mice received treatment with vehicle, echinomycin (LEM, 0.25 mg/kg/dose), anti-CTLA-4 mAb (9D9, 0.2 mg/mouse/injection), or their combination on days 6, 8, 10, and 12, and were euthanized on day 14. The tumors were dissociated and analyzed by flow cytometry to quantitate PD-L1 expression on tumor cells (gated on Singlets/Live_CD45^−) (FIG. 6A), M-MDSCs (gated on Singlets/Live_CD45^+/CD11b^+CD11c^−/Ly6ChighLy6G^−) (FIG. 6B), PMN-MDSCs (gated on Singlets/Live_CD45^+/CD11b^+CD11c^−/Ly6CInt.Ly6G^+) (FIG. 6C), or CD11c^+TAMs (gated on Singlets/Live_CD45^+/CD11b^+CD11c^+) (FIG. 6D). Upper panels show representative histograms of PD-L1 staining and lower panels show aggregate data from individual mice, pooled from three independent experiments (n=5 mice/group/experiment). Data shown are mean±SEM of PD-L1 MFI. Statistics were determined by one-way ANOVA with Sidak's multiple comparisons test (FIG. 6A), or by two-tailed unpaired t-tests (FIGS. 6B-D). FIGS. 6E-G. Echinomycin treatment reprograms the TME. Dissociated E0771 tumors were obtained from C57BL/6 mice treated with different therapies (n=5 mice/group), as described in FIGS. 6A-D. Single cell suspension were cultured for 4 hours with PMA+ionomycin+Golgi stop, surface stained, and then intracellular stained for IFNγ (for quantitation of Th1 and Tc1 cells) or surface stained for PD-L1. FIG. 6E. IFNγ expression in CD8+tumor-infiltrating lymphocytes (TILs) (gated on Singlets/Live_CD45^+/CD3^+/CD8^+CD4^−). […] FIG. 6F. IFNγ expression in the CD4^+ TILs (gated on Singlets/Live_CD45^+/CD3^+/CD8^−CD4^+). As in FIG. 6E, except that CD4 TIL were analyzed.
FIG. 6G. MHCII expression on CD11c^+ TAMs (gated on Singlets/Live_CD45^+/CD11b^+CD11c^+).
FIGS. 9A-H. C57BL/6 mice received E0771 cells (0.5×10^6/mouse) on day 0 followed by treatment with vehicle, echinomycin (LEM, 0.25 mg/kg/dose), anti-CTLA-4 (9D9, 0.2 mg/mouse/dose), or 9D9+LEM on days 6, 8, and 10. On day 14, tumors were analyzed by flow cytometry. […] Data are presented as the ±SEM of each group (n=5/group), analyzed by unpaired two-tailed Student's t-test and are representative of two experiments. FIGS. 9A-B. Frequencies of TILs expressing PD-1. FIGS. 9C-D. Frequencies of annexin V^+ CD8 or CD4 TILs. FIGS. 9E-F. Frequencies of CD8 TILs expressing granzyme B or perforin. FIGS. 9G-H. Granzyme B and perforin expression in CD4 TILs. FIG. 9I. Effect of depletion of CD4, CD8, or NK cells on tumor growth inhibition by 9D9+LEM in syngeneic E0771 model. C57BL/6 mice received E0771 cells (0.5×10^6/mouse) on day 0. On day 5, the mice were randomized to receive depletory antibodies (500 μg of anti-CD4 (GK1.5), anti-CD8 (YTS169.4), anti-NK1.1 (PK136), or isotype ctrl). All groups received 9D9 (200 ug) on day 6, and LEM (250 ug/kg) on days 6, 8, and 10. Mice received supplemental dose of depletory antibodies (200 μg) on days 8 and 10. The mean±SEM tumor volumes are plotted on the y axes for each group (n=5/group) and analyzed by two-way ANOVA. Representative data shown for one of two experiments.

Where [1] appears, read: with or without anti-CTLA-4 therapy.

As to `CSC1SC[C@H]2C(=O)N(C)[C@@H](C(C)C)C(=O)OC[C@@H](NC(=O)c3cnc4ccccc4n3)C(=O)N[C@@H](C)C(=O)N(C)[C@@H]1C(=O)N(C)[C@@H](C(C)C)C(=O)OC[C@@H](NC(=O)c1cnc3ccccc3n1)C(=O)N[C@@H](C)C(=O)N2C` (stereo in doubt) [echinomycin, N,N′-(2,4,12,15,17,25-hexamethyl-11,24-bis(1-methylethyl)-27-(methylthio)-3,6,10,13,16,19,23,26-octaoxo-9,22-dioxa-28-thia-2,5,12,15,18,25-hexaazabicyclo(12.12.3)nonacosane-7,20-diyl)bis(2-quinoxalinecarboxamide)], the “frequencies of tumor-infiltrated lymphocytes or myeloid subsets” value (E0771 tumors) was “did not significantly impact”. The “apoptotic (annexin V) CD8 TILs” value (compared to vehicle, echinomycin added to 9D9) is “appeared to repress this effect”. For the same compound, the “PD-1 expression on CD8 TILs” value (compared to vehicle, echinomycin added to anti-CTLA-4) was “reversed”. Further, under setting [1], the “PD-L1 expression on CD11b+CD11c+ double-positive cells” value was “significantly reduced PD-L1 expression”, the “PD-L1 expression on PMN-MDSCs” value is “significantly reduced PD-L1 expression” and the “PD-L1 expression on tumor-infiltrated monocytic MDSCs (M-MDSC)” value was “significantly reduced PD-L1 expression”. The “PD-L1 expression on tumor cells” value (with or without anti-CTLA-4 therapy, LEM 0.25 mg/kg/dose) was “significantly reduced PD-L1 expression”.
